In patent US7452887B2, “Quinoline- and isoquinoline-based compounds exhibiting ATP-utilizing enzyme inhibitory activity, and compositions, and uses thereof” (Amphora Discovery Corporation, priority 2004, dated 2008) one finds Activity data, which are given here for two compounds.

Experiment in all cases: HTS ATP-utilizing enzyme assay, off-chip mobility-shift (Caliper HTS 250)
What all share (format): biochemical
What all share (details): test compound 10 μM, kinase listed = active (greater than six-sigma from the mean activity of inactive compounds)

The target of one assay is MAPKAPK2 (Homo sapiens, UniProt P49137). In short, it runs like this:
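Phosphorylation of a peptide substrate was quantified by Caliper mobility-shift separation of substrate and product after 2.5 h at 20-22 °C, with compounds tested at 10 μM. Inhibition was normalized to EDTA-quenched (100%) and DMSO (0%) controls; six-sigma thresholds flagged actives.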

The next assay has as its target T1, NEK2 (Homo sapiens, UniProt P51955).
T1 sequence (P51955 1-445): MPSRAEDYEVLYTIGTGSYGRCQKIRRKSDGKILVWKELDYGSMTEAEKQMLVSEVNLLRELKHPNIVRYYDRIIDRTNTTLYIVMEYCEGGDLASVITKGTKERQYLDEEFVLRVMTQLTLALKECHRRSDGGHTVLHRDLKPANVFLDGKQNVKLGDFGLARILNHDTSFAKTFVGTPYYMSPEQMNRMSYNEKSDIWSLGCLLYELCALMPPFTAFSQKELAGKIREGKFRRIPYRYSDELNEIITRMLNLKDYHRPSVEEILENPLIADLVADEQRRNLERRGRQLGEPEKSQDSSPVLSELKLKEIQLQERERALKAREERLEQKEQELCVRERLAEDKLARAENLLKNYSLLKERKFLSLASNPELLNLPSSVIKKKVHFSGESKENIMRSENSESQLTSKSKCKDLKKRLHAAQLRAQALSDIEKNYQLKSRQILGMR
In short, it runs like this:
(§1)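 Compounds were tested once at 10 μM against kinase with peptide substrate. After 2.5 hrs at 20° C. to 22° C., reactions were terminated with EDTA, and conversion was read as substrate/product ratio by mobility shift.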

The target of the next assay is T2, PRAK (Homo sapiens, UniProt Q8IW41).
T2 sequence (Q8IW41 1-473): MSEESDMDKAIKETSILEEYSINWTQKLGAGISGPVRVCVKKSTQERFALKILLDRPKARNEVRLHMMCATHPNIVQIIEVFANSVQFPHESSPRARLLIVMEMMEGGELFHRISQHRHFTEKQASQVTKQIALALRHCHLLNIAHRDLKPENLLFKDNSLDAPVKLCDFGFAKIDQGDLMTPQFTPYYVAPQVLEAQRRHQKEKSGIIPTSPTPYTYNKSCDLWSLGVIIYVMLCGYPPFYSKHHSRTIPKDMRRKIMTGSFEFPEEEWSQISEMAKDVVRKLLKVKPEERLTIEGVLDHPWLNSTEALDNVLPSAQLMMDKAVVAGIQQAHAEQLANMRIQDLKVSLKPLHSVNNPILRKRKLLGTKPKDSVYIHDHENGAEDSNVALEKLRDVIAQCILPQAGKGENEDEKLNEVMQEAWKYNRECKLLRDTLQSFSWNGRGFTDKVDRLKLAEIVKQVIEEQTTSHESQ
In short, it runs like this:
as §1

The next assay has as its target C-TAK1 (Homo sapiens, UniProt P27448). Summed up:
as §1

The next assay has as its target MSK1 (Homo sapiens, UniProt O75582). In short, it runs like this:
as §1

For the next assay, the target named is AKT1 (Homo sapiens, UniProt P31749). Summed up: as §1
AKT1, sequence (P31749 whole entry): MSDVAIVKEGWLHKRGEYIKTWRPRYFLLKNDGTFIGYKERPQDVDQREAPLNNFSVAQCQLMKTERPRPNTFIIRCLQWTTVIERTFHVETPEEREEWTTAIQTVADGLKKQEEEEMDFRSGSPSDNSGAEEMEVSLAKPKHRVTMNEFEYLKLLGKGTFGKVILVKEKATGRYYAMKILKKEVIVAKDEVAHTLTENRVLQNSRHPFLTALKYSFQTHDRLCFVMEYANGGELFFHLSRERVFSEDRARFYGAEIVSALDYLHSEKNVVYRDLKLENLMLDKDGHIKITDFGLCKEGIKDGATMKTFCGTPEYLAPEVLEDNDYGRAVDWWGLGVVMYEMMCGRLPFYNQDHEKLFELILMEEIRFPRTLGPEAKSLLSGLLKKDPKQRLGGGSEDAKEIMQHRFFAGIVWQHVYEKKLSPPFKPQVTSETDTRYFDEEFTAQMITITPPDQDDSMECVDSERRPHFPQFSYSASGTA
A further assay has as its target AKT3 (Homo sapiens, UniProt Q9Y243). Summed up: as §1

MAPKAPK2, sequence (P49137 whole entry): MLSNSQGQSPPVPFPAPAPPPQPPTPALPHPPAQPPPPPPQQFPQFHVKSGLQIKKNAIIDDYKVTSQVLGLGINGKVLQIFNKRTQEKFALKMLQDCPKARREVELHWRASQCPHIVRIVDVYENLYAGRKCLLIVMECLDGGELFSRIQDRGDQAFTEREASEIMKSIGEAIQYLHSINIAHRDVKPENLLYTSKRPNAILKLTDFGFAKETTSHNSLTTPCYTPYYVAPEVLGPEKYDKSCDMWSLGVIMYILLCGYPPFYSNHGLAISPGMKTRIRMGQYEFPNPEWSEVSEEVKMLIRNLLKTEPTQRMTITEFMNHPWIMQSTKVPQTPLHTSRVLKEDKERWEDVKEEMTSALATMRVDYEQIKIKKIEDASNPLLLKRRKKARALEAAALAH
MSK1, sequence (O75582 whole entry): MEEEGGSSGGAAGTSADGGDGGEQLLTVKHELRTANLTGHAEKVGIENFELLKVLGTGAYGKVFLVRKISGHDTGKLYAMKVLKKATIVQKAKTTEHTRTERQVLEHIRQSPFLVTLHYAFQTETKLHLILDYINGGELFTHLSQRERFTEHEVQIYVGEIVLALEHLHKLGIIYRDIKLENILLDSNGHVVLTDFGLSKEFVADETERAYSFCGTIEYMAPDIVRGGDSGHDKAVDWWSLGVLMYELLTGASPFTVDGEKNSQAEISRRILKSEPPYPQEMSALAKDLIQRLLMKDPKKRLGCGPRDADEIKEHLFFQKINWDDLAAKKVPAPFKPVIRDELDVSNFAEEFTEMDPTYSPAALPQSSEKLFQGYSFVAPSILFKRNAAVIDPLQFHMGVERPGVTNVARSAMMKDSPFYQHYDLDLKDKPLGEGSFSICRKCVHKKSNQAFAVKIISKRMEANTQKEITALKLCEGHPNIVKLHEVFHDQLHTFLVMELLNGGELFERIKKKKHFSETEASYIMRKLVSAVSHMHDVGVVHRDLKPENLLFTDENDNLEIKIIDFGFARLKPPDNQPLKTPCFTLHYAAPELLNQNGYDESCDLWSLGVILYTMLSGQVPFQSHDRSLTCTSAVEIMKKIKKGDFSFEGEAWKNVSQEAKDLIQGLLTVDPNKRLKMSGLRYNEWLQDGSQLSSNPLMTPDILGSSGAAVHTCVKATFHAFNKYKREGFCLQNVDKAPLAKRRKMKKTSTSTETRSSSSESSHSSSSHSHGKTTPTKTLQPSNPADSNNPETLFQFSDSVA
C-TAK1, sequence (P27448 whole entry): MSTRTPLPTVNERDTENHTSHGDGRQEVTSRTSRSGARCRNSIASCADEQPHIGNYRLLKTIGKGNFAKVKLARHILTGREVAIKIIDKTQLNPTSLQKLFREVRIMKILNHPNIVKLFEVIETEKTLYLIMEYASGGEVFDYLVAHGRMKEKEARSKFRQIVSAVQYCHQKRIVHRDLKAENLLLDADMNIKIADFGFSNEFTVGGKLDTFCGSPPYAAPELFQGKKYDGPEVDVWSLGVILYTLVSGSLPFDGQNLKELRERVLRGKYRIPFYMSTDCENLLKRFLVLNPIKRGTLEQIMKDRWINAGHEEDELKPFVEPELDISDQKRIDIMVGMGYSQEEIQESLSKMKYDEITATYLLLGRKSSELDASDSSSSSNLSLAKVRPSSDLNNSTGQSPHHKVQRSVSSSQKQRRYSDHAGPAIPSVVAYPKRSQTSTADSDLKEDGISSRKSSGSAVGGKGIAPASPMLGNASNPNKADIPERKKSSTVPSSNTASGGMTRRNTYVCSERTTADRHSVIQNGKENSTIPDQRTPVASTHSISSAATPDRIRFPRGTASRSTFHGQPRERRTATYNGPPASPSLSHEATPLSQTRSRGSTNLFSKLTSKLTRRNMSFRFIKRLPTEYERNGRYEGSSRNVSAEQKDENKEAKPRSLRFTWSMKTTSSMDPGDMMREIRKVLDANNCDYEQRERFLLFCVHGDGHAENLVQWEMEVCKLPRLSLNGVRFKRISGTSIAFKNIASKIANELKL
AKT3, sequence (Q9Y243 whole entry): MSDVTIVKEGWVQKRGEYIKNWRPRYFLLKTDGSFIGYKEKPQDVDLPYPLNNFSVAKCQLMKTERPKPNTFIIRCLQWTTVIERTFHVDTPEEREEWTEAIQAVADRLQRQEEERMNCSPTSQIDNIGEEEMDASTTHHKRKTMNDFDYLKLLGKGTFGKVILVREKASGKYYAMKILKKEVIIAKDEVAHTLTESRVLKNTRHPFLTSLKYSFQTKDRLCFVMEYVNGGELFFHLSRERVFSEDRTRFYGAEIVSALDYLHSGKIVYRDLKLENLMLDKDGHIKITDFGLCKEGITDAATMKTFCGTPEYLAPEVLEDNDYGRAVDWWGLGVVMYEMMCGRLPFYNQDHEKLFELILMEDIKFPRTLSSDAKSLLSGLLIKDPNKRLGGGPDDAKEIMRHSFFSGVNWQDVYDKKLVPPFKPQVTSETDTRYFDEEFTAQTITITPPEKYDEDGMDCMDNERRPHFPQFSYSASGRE

As to `CN1CCN(c2ccc(Nc3ccnc4ccc(-c5ccc(F)c(Cl)c5)cc34)cc2)CC1` [6-(3-chloro-4-fluorophenyl)-N-(4-(4-methylpiperazin-1-yl)phenyl)quinolin-4-amine], the Activity result is “MAPKAPK2” on MAPKAPK2; “NEK2” at NEK2; “PRAK” on PRAK; “C-TAK1” at C-TAK1; “MSK1” on MSK1.

As for `CN1CCN(c2ccc(Nc3ccnc4ccc(-c5cccc(C#N)c5)cc34)cc2)CC1` [3-(4-(4-(4-methylpiperazin-1-yl)phenylamino)quinolin-6-yl)benzonitrile], the Activity entry on MAPKAPK2 is reported as “MAPKAPK2”; on NEK2 it was “NEK2”; on AKT1, “AKT1”; at PRAK, “PRAK”; at AKT3 it was “AKT3”.
